The test system of test [1] is Mycobacterium tuberculosis (strain H37RV). In words: In-vitro method for testing compounds against M. tuberculosis (resazurin growth inhibition, MIC). In kind it is cell-based. The settings on record: MIC data representing IC90's, 7 days incubation, resazurin fluorescence. On the technique in general: The colour change of resazurin is a common sign of viable cells or microbes.

Test [2] relates to M. Smegmatis ATCC607. As to the kind of experiment: In-vitro method for testing compounds for anti-bacterial activity against strain M. smegmatis ATCC607 (Alamar Blue growth inhibition). To be noted: M. smegmatis ATCC607; pIC50 = -logIC50, IC50 in M, 50% inhibitory concentration for bacterial growth; 48 hours incubation. In kind it is cell-based. The protocol:
C.2. In-vitro Method for Testing Compounds for Anti-bacterial Activity Against Strain M. Smegmatis ATCC607. […] Subsequently, stock solutions (7.8×final test concentration) of compounds were added in 45 μl volumes to a series of duplicate wells in column 2 so as to allow evaluation of their effects on bacterial growth. Serial five-fold dilutions (45 μl in 180 μl) were made directly in the microtiter plates from column 2 to 11 using a customised robot system (Zymark Corp., Hopkinton, Mass.). Pipette tips were changed after every 3 dilutions to minimize pipetting errors with high hydrophobic compounds. Untreated control samples with (column 1) and without (column 12) inoculum were included in each microtiter plate. Approximately 250 CFU per well of bacteria inoculum, in a volume of 100 μl in 2.8×Mueller-Hinton broth medium, was added to the rows […]. The same volume of broth medium without inoculum was added to column 12 in row A to H. The cultures were incubated at 37° C. for 48 hours in a humidified 5% CO2 atmosphere (incubator with open air valve and continuous ventilation). At the end of incubation, two days after inoculation, the bacterial growth was quantitated fluorometrically. Therefore Alamar Blue (10×) was added to all wells in a volume of 20 μl and plates were incubated for another 2 hours at […] The fluorescence was read in a computer-controlled fluorometer (Cytofluor, Biosearch) at an excitation wavelength of 530 nm and an emission wavelength of 590 nm (gain 30). The % growth inhibition achieved by the compounds was calculated according to standard methods.

A word on the pIC50: it is −log10 of the IC50, conventionally taken in molar units. High values mean a small IC50, low ones a large IC50. In turn, `COc1nc2ccc(Br)cc2cc1C(c1ccccc1)C(O)(CC[N+](C)(C)C)c1ccccc1.[I-]` (racemic) [Compound 57] returned an MIC in test [1] of 25.77 microgram/ml. The pIC50 in test [2] is 5.4.
Take `COc1nc2ccc(Br)cc2cc1C(c1ccccc1)C(O)(CC[N+](C)(C)[O-])c1ccccc1` (racemic) [Compound 58]: the MIC in test [1] came to 16.49 microgram/ml. Moreover, the pIC50 in test [2] stood at 6.8.
For `COc1nc2ccc(Br)cc2cc1C(c1ccccc1)C(O)(CCN(C)C)c1ccccc1F` (racemic) [Compound 69], in that order: 0.13 microgram/ml and 8.5.
For `COc1nc2ccc(Br)cc2cc1C(c1ccccc1)C(O)(CCN(C)C)c1ccccc1F` (racemic) [Compound 70], in that order: 52.35 microgram/ml and 5.8.
For `COc1nc2ccc(Br)cc2cc1C(c1ccc(Cl)cc1)C(O)(CCN(C)C)c1cccc2ccccc12` (racemic) [Compound 73], in that order: 23.49 microgram/ml and 8.0.
For the molecule `COc1nc2ccc(Br)cc2cc1C(c1ccc(Cl)cc1)C(O)(CCN(C)C)c1cccc2ccccc12` (racemic) [Compound 74], in test [1], the MIC was determined as 59.00 microgram/ml. In test [2], this molecule came in with a pIC50 of 6.5.
For `COc1nc2ccc(Br)cc2cc1C(c1ccccc1)C(O)(CCN(C)C)c1ccc2c(c1)OCO2` (racemic) [Compound 75], in that order: 1.74 microgram/ml and 7.9.
For `COc1nc2ccc(Br)cc2cc1C(c1ccccc1)C(O)(CCN(C)C)c1ccc2c(c1)OCO2` (racemic) [Compound 76], the MIC in test [1] amounted to 1.74 microgram/ml. This molecule also returned a pIC50 in test [2] of 5.9.
For `COc1nc2ccc(Br)cc2cc1C(c1ccccc1)C(O)(CCN(C)C)c1ccc2c(c1)OCCO2` (racemic) [Compound 77], in that order: 8.93 microgram/ml and 7.2.
For the molecule `COc1nc2ccc(Br)cc2cc1C(c1ccccc1)C(O)(CCN(C)C)c1ccc2c(c1)OCCO2` (racemic) [Compound 78], in test [1], the MIC worked out at 44.76 microgram/ml. Also, in test [2], the pIC50 is 5.8.
For `CN(C)CCC(O)(c1cccc2ccccc12)C(c1ccccc1)c1cc2cc(Br)ccc2nc1N1CCOCC1` (racemic) [Compound 79], in that order: 2.43 microgram/ml and 7.2.
For `COc1nc2ccc(Br)cc2cc1C(c1ccccc1)C(O)(CCN(C)C)c1ccc(C#N)cc1` (racemic) [Compound 80], in that order: 2.11 microgram/ml and 7.1.
For `COc1nc2ccc(Br)cc2cc1C(c1ccccc1)C(O)(CCN(C)C)c1ccc(C#N)cc1` (racemic) [Compound 81], in that order: 42.14 microgram/ml and 5.4.
In test [1], `COc1nc2ccc(C)cc2cc1C(c1ccccc1)C(O)(CCN(C)C)c1cccc2ccccc12` (racemic) [Compound 82] returned an MIC of 3.90 microgram/ml. The same molecule had a pIC50 in test [2] of 7.1.
Turning to `COc1nc2ccc(C)cc2cc1C(c1ccccc1)C(O)(CCN(C)C)c1cccc2ccccc12` (racemic) [Compound 83], the MIC in test [1] turned out to be 7.78 microgram/ml. For the same molecule, the pIC50 in test [2] is 5.8.
`COc1nc2ccc(-c3ccccc3)cc2cc1C(c1ccccc1)C(O)(CCN(C)C)c1cccc2ccccc12` (racemic) [Compound 84] gave an MIC in test [1] of 8.76 microgram/ml. This molecule registered a negative logarithm of the IC50 (pIC50) in test [2] of 7.0.
For `COc1nc2ccc(-c3ccccc3)cc2cc1C(c1ccccc1)C(O)(CCN(C)C)c1cccc2ccccc12` (racemic) [Compound 85], in that order: 8.76 microgram/ml and 5.9.
With `COc1nc2ccc(Br)cc2cc1C(c1ccccc1)C(O)(CCN(C)C)c1cccnc1` (racemic) [Compound 86], in test [1], the MIC is 16.02 microgram/ml. Besides, the pIC50 in test [2] worked out at 6.9.
For `COc1nc2ccc(Br)cc2cc1C(c1ccccc1)C(O)(CCN(C)C)c1cccnc1` (racemic) [Compound 87], in that order: 40.23 microgram/ml and 5.0.
For `CSc1nc2ccc(Br)cc2cc1C(c1ccccc1)C(O)(CCN(C)C)c1cccc2ccccc12` (racemic) [Compound 88], in that order: 45.40 microgram/ml and 6.8.
For `COc1nc2ccc(Br)cc2cc1C(c1ccccc1)C(O)(CCN(C)C)c1ccc(N2CCOCC2)cc1` (racemic) [Compound 89], in that order: 59.06 microgram/ml and 6.4.
`COc1nc2ccc(Br)cc2cc1C(c1ccccc1)C(O)(CCN(C)C)c1ccc(N2CCOCC2)cc1` (racemic) [Compound 90]: the MIC in test [1] turned out to be 59.06 microgram/ml. The same molecule displayed a pIC50 in test [2] of 5.3.
In the case of `COc1nc2ccccc2cc1C(c1ccccc1)C(O)(CCN(C)C)c1cccc2ccccc12` (racemic) [Compound 91], the MIC in test [1] stood at 1.51 microgram/ml. In addition, in test [2], the pIC50 turned out to be 7.5.
For `COc1nc2ccccc2cc1C(c1ccccc1)C(O)(CCN(C)C)c1cccc2ccccc12` (racemic) [Compound 92], in that order: 7.55 microgram/ml and 6.5.
For `COc1nc2ccccc2cc1C(c1ccccc1)C(O)(CCN(C)C)c1cccc(F)c1` (racemic) [Compound 93], in that order: 35.31 microgram/ml and 4.8.
Regarding `COc1nc2ccccc2cc1C(c1ccccc1)C(O)(CCN(C)C)c1cccc(F)c1` (racemic) [Compound 94], in test [1], the MIC turned out to be 1.77 microgram/ml. Further, in test [2], the negative-log IC50 (pIC50) stood at 7.9.
For `COc1nc2ccc(Br)cc2cc1C(c1ccccc1)C(O)(CCc1ccccc1)CCN(C)C` (racemic) [Compound 95], in that order: 16.87 microgram/ml and 6.9.
For `COc1nc2ccc(Br)cc2cc1C(c1ccccc1)C(O)(CC[N+](C)(C)[O-])c1cccc2ccccc12` (racemic) [Compound 101], in that order: 9.06 microgram/ml and 5.8.
For `COc1nc2ccc(Br)cc2cc1C(c1ccccc1)C(O)(CC[N+](C)(C)C)c1cccc2ccccc12.[I-]` (racemic) [Compound 103], in that order: 5.54 microgram/ml and 5.9.
Molecule `COc1nc2ccc(Br)cc2cc1C(c1ccccc1)C(O)(CCN1CCOCC1)c1ccccc1` (racemic) [Compound 123] returned an MIC in test [1] of 54.75 microgram/ml. In test [2], the pIC50 turned out to be 4.2.
For `COc1nc2ccc(Br)cc2cc1C(c1ccccc1)C(O)(CCN1CCOCC1)c1ccccc1` (racemic) [Compound 124], in that order: 54.75 microgram/ml and 5.3.
`COc1nc2ccc(Br)cc2cc1C(c1ccccc1)C(O)(CCN1CCN(C)CC1)c1ccc2ccccc2c1` (racemic) [Compound 136] gave an MIC in test [1] of 16.81 microgram/ml. The molecule further registered a negative-log IC50 (pIC50) in test [2] of 6.2.
For `COc1nc2ccc(Br)cc2cc1C(c1ccccc1)C(O)(CCN1CCN(C)CC1)c1ccc2ccccc2c1` (racemic) [Compound 137], in that order: 42.23 microgram/ml and 4.6.
For `COc1nc2ccc(Br)cc2cc1C(c1ccccc1)C(O)(CCN(C)C)c1ccc(F)c(F)c1` (racemic) [Compound 195], in test [1], the MIC is recorded as 6.82 microgram/ml. Moreover, the pIC50 in test [2] was determined as 6.5.
For `COc1nc2ccc(Br)cc2cc1C(c1ccccc1)C(O)(CCN(C)C)c1ccc(F)c(F)c1` (racemic) [Compound 196], in that order: 1.71 microgram/ml and 6.6.
For `COc1nc2ccc(Br)cc2cc1C(c1ccc(F)cc1)C(O)(CCN(C)C)c1cccc2ccccc12` (racemic) [Compound 205], in that order: 4.56 microgram/ml and 7.2.
For `COc1nc2ccc(Br)cc2cc1C(c1ccc(F)cc1)C(O)(CCN(C)C)c1cccc2ccccc12` (racemic) [Compound 206], in that order: 9.09 microgram/ml and 6.5.
`COc1nc2ccc(F)cc2cc1C(c1ccccc1)C(O)(CCN(C)C)c1cc(F)cc(F)c1` (racemic) [Compound 207] gave an MIC in test [1] of 48.05 microgram/ml. Also, the pIC50 in test [2] is on record as 5.2.
For `COc1nc2ccc(F)cc2cc1C(c1ccccc1)C(O)(CCN(C)C)c1cc(F)cc(F)c1` (racemic) [Compound 208], in that order: 0.38 microgram/ml and 7.9.
For `COc1nc2ccc(Br)cc2cc1C(c1ccccc1)C(O)(CCN(C)C)c1ccc(Cl)cc1` (single isomer, unassigned) [Compound 16], in that order: 0.34 microgram/ml and 6.8.
For `COc1nc2ccc(Br)cc2cc1C(c1ccccc1)C(O)(CCN(C)C)c1ccc(Cl)cc1` (single isomer, unassigned) [Compound 17], in that order: 1.71 microgram/ml and 6.5.
